According to publication PMC10331595 (Redox Biology, 2023):
Where two headings read alike, the source gives them in different places.

Test system: NK-LAAO (native Naja kaouthia L-amino acid oxidase)
Format: biochemical
Settings: 100 mM Tris-HCl pH 8.5, 25 °C

In the case of N=C(N)NCCC[C@H](N)C(=O)O [L-Arg], the Km (0.125-4 mM substrate, 2 min) is reported as 3100 ± 448 µM.
With N[C@@H](CCC(=O)O)C(=O)O [L-Glu] the Km (0.625-20 mM substrate, 240 min) was 3560 ± 353 µM.
Compound CC(C)C[C@H](N)C(=O)O [L-Leu] has a Km (0.0625-4 mM substrate, 4 min) of 637 ± 34.5 µM.
Compound CSCC[C@H](N)C(=O)O [L-Met] has a Km (0.03125-4 mM substrate, 2 min) of 587 ± 9.5 µM.
In the case of N[C@@H](Cc1c[nH]c2ccccc12)C(=O)O [L-Trp], the Km (0.03125-1 mM substrate, 2 min) is reported as 471 ± 25.9 µM.
